Among the data in patent publication US9718828B2 (MERCK SHARP & DOHME CORP., priority 2011, dated 2017) are EC50 values, retold here.

Where a name gives a salt, the structure may show the parent alone.

The target in one assay is Btk enzyme (His-Btk) (Homo sapiens (Human), UniProt Q06187). Description: Btk enzyme activity, IMAP fluorescence polarization assay (Assay Method A).
Btk enzyme (His-Btk), sequence (Q06187 whole entry): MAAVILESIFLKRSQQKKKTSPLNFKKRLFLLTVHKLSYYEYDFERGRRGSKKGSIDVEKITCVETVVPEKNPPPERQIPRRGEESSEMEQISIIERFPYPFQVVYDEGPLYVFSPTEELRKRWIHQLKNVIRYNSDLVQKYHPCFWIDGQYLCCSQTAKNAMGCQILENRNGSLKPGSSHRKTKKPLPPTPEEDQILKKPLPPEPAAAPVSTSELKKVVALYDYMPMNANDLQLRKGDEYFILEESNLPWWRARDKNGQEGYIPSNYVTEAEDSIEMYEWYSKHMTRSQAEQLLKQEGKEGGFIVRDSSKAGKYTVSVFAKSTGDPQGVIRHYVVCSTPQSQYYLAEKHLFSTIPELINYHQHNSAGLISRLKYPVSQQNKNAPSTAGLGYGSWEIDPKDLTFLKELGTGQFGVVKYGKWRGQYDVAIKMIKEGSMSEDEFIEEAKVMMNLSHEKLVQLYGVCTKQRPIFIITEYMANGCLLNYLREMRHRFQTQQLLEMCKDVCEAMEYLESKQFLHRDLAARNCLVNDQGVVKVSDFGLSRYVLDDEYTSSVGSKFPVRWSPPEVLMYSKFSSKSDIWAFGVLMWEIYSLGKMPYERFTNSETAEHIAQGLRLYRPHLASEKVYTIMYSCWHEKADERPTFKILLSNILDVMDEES
Conditions: not given
(In general: Polarisation of emitted light reports the rotation of a fluorescent probe.)
What is called EC50 is the concentration that produces a half-maximal response. The compound `CCOC(=O)C1CC1CN1CCC[C@@H](c2nc(-c3ccc(C(=O)Nc4ccccn4)cc3)c3c(N)nccn23)C1` (stereo partly drawn) [Example 137, ethyl 2-(((R)-3-(8-amino-1-(4-(pyridin-2-ylcarbamoyl)phenyl)imidazo [1,5-a]pyrazin-3-yl)piperidin-1-yl)methyl) cyclopropanecarboxylate, TFA salt] registered an EC50 of 100 to 1000 nM. The same measure, in the same setting: under `CCN1CCC[C@@H](c2nc(-c3ccc(C(=O)Nc4cc(C(F)(F)F)ccn4)cc3)c3c(N)nccn23)C1` [Example 138, (R)-4-(8-amino-3-(1-ethylpiperidin-3-yl)imidazo[1,5-a]pyrazin-1-yl)-N-(4-(trifluoromethyl)pyridin-2-yl)benzamide, TFA salt] stands 10 to 100 nM; under `Nc1nccn2c([C@@H]3CCCN(CC4CC4)C3)nc(-c3ccc(C(=O)Nc4cc(C(F)(F)F)ccn4)cc3)c12` [Example 140, (R)-4-(8-amino-3-(1-(cyclopropylmethyl)piperidin-3-yl)imidazo[1,5-a]pyrazin-1-yl)-N-(4-(trifluoromethyl)pyridin-2-yl)benzamide, TFA salt], 10 to 100 nM; under `Nc1nccn2c([C@@H]3CCCN(CC4CCCC4)C3)nc(-c3ccc(C(=O)Nc4cc(C5CC5)ccn4)cc3)c12` [Example 143, (R)-4-(8-amino-3-(1-(cyclopentylmethyl)piperidin-3-yl)imidazo[1,5-a]pyrazin-1-yl)-N-(4-cyclopropylpyridin-2-yl)benzamide, TFA salt], 10 to 100 nM. `Nc1nccn2c([C@@H]3CCCN(Cc4ccc[nH]4)C3)nc(-c3ccc(C(=O)Nc4cc(C5CC5)ccn4)cc3)c12` [Example 144, (R)-4-(3-(1-((1H-pyrrol-2-yl)methyl)piperidin-3-yl)-8-aminoimidazo[1,5-a]pyrazin-1-yl)-N-(4-cyclopropylpyridin-2-yl)benzamide, TFA salt] yielded an EC50 of 10 to 100 nM. On to `Nc1nccn2c([C@@H]3CCCN(CC4CCOC4)C3)nc(-c3ccc(C(=O)Nc4cc(C5CC5)ccn4)cc3)c12` (stereo partly drawn) [Example 145, 4-(8-amino-3-((3R)-1-((tetrahydrofuran-3-yl)methyl)piperidin-3-yl)imidazo[1,5-a]pyrazin-1-yl)-N-(4-cyclopropylpyridin-2-yl)benzamide, TFA salt], for which the EC50 was in the range of 10 to 100 nM. The compound `Nc1nccn2c(C3CC4CCC3N4C(=O)C3CCCO3)nc(-c3ccc(C(=O)Nc4ccccn4)cc3)c12` (stereo not drawn) [Example 146, 4-(8-amino-3-(7-(tetrahydrofuran-2-carbonyl)-7-azabicyclo[2.2.1]heptan-2-yl)imidazo[1,5-a]pyrazin-1-yl)-N-(pyridin-2-yl)benzamide] registered an EC50 of 10 to 100 nM. Compound `CCC(=O)N1C2CCC1C(c1nc(-c3ccc(C(=O)Nc4ccccn4)cc3)c3c(N)nccn13)C2` (stereo not drawn) [Example 147, 4-(8-amino-3-(7-propionyl-7-azabicyclo[2.2.1]heptan-2-yl)imidazo[1,5-a]pyrazin-1-yl)-N-(pyridin-2-yl)benzamide] showed an EC50 of 100 to 1000 nM.

For `COCCC(=O)N1C2CCC1C(c1nc(-c3ccc(C(=O)Nc4ccccn4)cc3)c3c(N)nccn13)C2` (stereo not drawn) [Example 148, 4-(8-amino-3-(7-(3-methoxypropanoyl)-7-azabicyclo[2.2.1]heptan-2-yl)imidazo[1,5-a]pyrazin-1-yl)-N-(pyridin-2-yl)benzamide], the EC50 was in the range of 10 to 100 nM. Take `Nc1nccn2c(C3CC4CCC3N4C(=O)OCc3ccccc3)nc(-c3ccc(C(=O)Nc4ccccn4)cc3)c12` (stereo not drawn) [Example 149, benzyl 2-(8-amino-1-(4-(pyridin-2-ylcarbamoyl)phenyl)imidazo [1,5-a]pyrazin-3-yl)-7-azabicyclo[2.2.1]heptane-7-carboxylate]: the EC50 lay in the range of 10 to 100 nM.

`CC(C)C(=O)N1CCC2(CC1)CC2c1nc(-c2ccc(C(=O)Nc3ccccn3)cc2)c2c(N)nccn12` (stereo not drawn) [Example 150, 4-(8-amino-3-(6-isobutyryl-6-azaspiro[2.5]octan-1-yl)imidazo[1,5-a]pyrazin-1-yl)-N-(pyridin-2-yl) benzamidee] returned an EC50 of 100 to 1000 nM. Still for that read-out and setting: under `COCCC(=O)N1CCC2(CC1)CC2c1nc(-c2ccc(C(=O)Nc3ccccn3)cc2)c2c(N)nccn12` (stereo not drawn) [Example 151, 4-(8-amino-3-(6-(3-methoxypropanoyl)-6-azaspiro[2.5]octan-1-yl)imidazo[1,5-a]pyrazin-1-yl)-N-(pyridin-2-yl)benzamide] stands 100 to 1000 nM; under `Nc1nccn2c(C3CC34CCN(C(=O)CO)CC4)nc(-c3ccc(C(=O)Nc4ccccn4)cc3)c12` (stereo not drawn) [Example 152, 4-(8-amino-3-(6-(2-hydroxyacetyl)-6-azaspiro[2.5]octan-1-yl)imidazo[1,5-a]pyrazin-1-yl)-N-(pyridin-2-yl)benzamide], 100 to 1000 nM.

Turning to `CCC(=O)N1CCC2(CC1)CC2c1nc(-c2ccc(C(=O)Nc3ccccn3)cc2)c2c(N)nccn12` (stereo not drawn) [Example 153, 4-(8-amino-3-(6-propionyl-6-azaspiro[2.5]octan-1-yl)imidazo[1,5-a]pyrazin-1-yl)-N-(pyridin-2-yl)benzamide], the concentration giving a half-maximal response (EC50) fell in the range of 100 to 1000 nM.

For `CC(C)C(=O)N1CCOC(c2nc(-c3ccc(C(=O)Nc4cc(C(F)(F)F)ccn4)cc3)c3c(N)nccn23)C1` (stereo not drawn) [Example 173, 4-(8-amino-3-(4-isobutyrylmorpholin-2-yl)imidazo[1,5-a]pyrazin-1-yl)-N-(4-(trifluoromethyl)pyridin-2-yl)benzamide], the EC50 is less than 10 nM. Same read-out and setting: under `N#Cc1ccnc(NC(=O)c2ccc(-c3nc(N4CCC4)n4ccnc(N)c34)cc2)c1` [Example 209, 4-(8-amino-3-(azetidin-1-yl)imidazo[1,5-a]pyrazin-1-yl)-N-(4-cyanopyridin-2-yl)benzamide] stands 100 to 1000 nM; under `Nc1nccn2c(N3CCC3)nc(-c3ccc(C(=O)Nc4cc(C(F)(F)F)ccn4)cc3)c12` [Example 210, 4-(8-amino-3-(azetidin-1-yl)imidazo[1,5-a]pyrazin-1-yl)-N-(4-(trifluoromethyl)pyridin-2-yl)benzamide], 10 to 100 nM. Still for that read-out and setting: under `CCN(CC)c1nc(-c2ccc(C(=O)Nc3ccccn3)cc2)c2c(N)nccn12` [Example 213, 4-(8-amino-3-(diethylamino)imidazo[1,5-a]pyrazin-1-yl)-N-(pyridin-2-yl)benzamide] stands 100 to 1000 nM; under `CCN(CC)c1nc(-c2ccc(C(=O)Nc3cc(C#N)ccn3)cc2)c2c(N)nccn12` [Example 215, 4-(8-amino-3-(diethylamino)imidazo[1,5-a]pyrazin-1-yl)-N-(4-cyanopyridin-2-yl)benzamide], 10 to 100 nM.

Staying with this assay, now noted: read-out: EC50 Btk activity values - Assay Method A; IMAP-FP, 60 min pre-incubation, 5 μM ATP; class 100-1000 is given as ≧100 nM-<1 μM.
As to `Nc1nccn2c([C@@H]3CCCN(CC(O)CO)C3)nc(-c3ccc(C(=O)Nc4cc(C(F)(F)F)ccn4)cc3)c12` (stereo partly drawn) [Example 139, 4-(8-amino-3-((3R)-1-(2,3-dihydroxypropyl)piperidin-3-yl)imidazo[1,5-a]pyrazin-1-yl)-N-(4-(trifluoromethyl)pyridin-2-yl)benzamide, TFA salt], the EC50 was less than 10 nM. For the compound `Nc1nccn2c([C@@H]3CCCN(Cc4ccncc4)C3)nc(-c3ccc(C(=O)Nc4cc(C(F)(F)F)ccn4)cc3)c12` [Example 141, (R)-4-(8-amino-3-(1-(pyridin-4-ylmethyl)piperidin-3-yl)imidazo[1,5-a]pyrazin-1-yl)-N-(4-(trifluoromethyl)pyridin-2-yl)benzamide, TFA salt], the EC50 is less than 10 nM.

`Nc1nccn2c([C@@H]3CCCN(CC4CCOC4)C3)nc(-c3ccc(C(=O)Nc4cc(C(F)(F)F)ccn4)cc3)c12` (stereo partly drawn) [Example 142, 4-(8-amino-3-((3R)-1-((tetrahydrofuran-3-yl)methyl)piperidin-3-yl)imidazo[1,5-a]pyrazin-1-yl)-N-(4-(trifluoromethyl)pyridin-2-yl)benzamide, TFA salt]: the EC50 is less than 10 nM. For `CCC(=O)N1CCSC(c2nc(-c3ccc(C(=O)Nc4cc(C(F)(F)F)ccn4)cc3)c3c(N)nccn23)C1` (stereo not drawn) [Example 172, 4-(8-amino-3-(4-propionylthiomorpholin-2-yl)imidazo[1,5-a]pyrazin-1-yl)-N-(4-(trifluoromethyl)pyridin-2-yl)benzamide], the EC50 is less than 10 nM. Take `CC(C)(F)C(=O)N1CCOC(c2nc(-c3ccc(C(=O)Nc4cc(C(F)(F)F)ccn4)cc3)c3c(N)nccn23)C1` (stereo not drawn) [Example 174, 4-(8-amino-3-(4-(2-fluoro-2-methylpropanoyl)morpholin-2-yl)imidazo[1,5-a]pyrazin-1-yl)-N-(4-(trifluoromethyl)pyridin-2-yl)benzamide]: the EC50 is less than 10 nM. Still for that read-out and setting: under `Nc1nccn2c(C3CN(C(=O)C4CC4)CCO3)nc(-c3ccc(C(=O)Nc4cc(C(F)(F)F)ccn4)cc3)c12` (stereo not drawn) [Example 176, 4-(8-amino-3-(4-(cyclopropanecarbonyl)morpholin-2-yl)imidazo[1,5-a]pyrazin-1-yl)-N-(4-(trifluoromethyl)pyridin-2-yl)benzamide] stands less than 10 nM; under `CCNC(=O)N1CCOC(c2nc(-c3ccc(C(=O)Nc4cc(C(F)(F)F)ccn4)cc3)c3c(N)nccn23)C1` (stereo not drawn) [Example 178, 2-(8-amino-1-(4-(4-(trifluoromethyl)pyridin-2-ylcarbamoyl)phenyl)imidazo [1,5-a]pyrazin-3-yl)-N-ethylmorpholine-4-carboxamide], less than 10 nM. For the compound `CCCc1ccnc(NC(=O)c2ccc(-c3nc(N4CCC4)n4ccnc(N)c34)cc2)c1` [Example 208, 4-(8-amino-3-(azetidin-1-yl)imidazo[1,5-a]pyrazin-1-yl)-N-(4-propylpyridin-2-yl)benzamide], the EC50 is less than 10 nM. As for `Nc1nccn2c(N3CCOCC3)nc(-c3ccc(C(=O)Nc4cc(C(F)(F)F)ccn4)cc3)c12` [Example 211, 4-(8-amino-3-morpholinoimidazo[1,5-a]pyrazin-1-yl)-N-(4-(trifluoromethyl)pyridin-2-yl)benzamide], the EC50 was less than 10 nM. Still for that read-out and setting: under `CCCc1ccnc(NC(=O)c2ccc(-c3nc(N4CCOCC4)n4ccnc(N)c34)cc2)c1` [Example 212, 4-(8-amino-3-morpholinoimidazo[1,5-a]pyrazin-1-yl)-N-(4-propylpyridin-2-yl)benzamide] stands less than 10 nM; under `CCCc1ccnc(NC(=O)c2ccc(-c3nc(N(CC)CC)n4ccnc(N)c34)cc2)c1` [Example 214, 4-(8-amino-3-(diethylamino)imidazo[1,5-a]pyrazin-1-yl)-N-(4-propylpyridin-2-yl)benzamide], less than 10 nM.
